Patent US9498463B2, “Compound obtained from gamboge resin, and medical uses of the same” (priority 2010, dated 2016)
Converted amounts (≈) assume the structure as drawn. Read-outs that look alike come from different tables or passages of the source.

Legend:
in vitro = test: in vitro
Description: (§1) In Vitro Anti-Cancer Test
(§2) The in vitro anti-cancer test was primarily used to detect the effect of a candidate drug on cancer cell proliferation. The working principle involved therein is the ability of viable cells to shift alamarBlue (AbD Serotec, UK) from its originally non-fluorescent oxidized state (non-fluorescent, blue) to a reduced form (fluorescent, red) having fluorescence via metabolic reaction. According to the fluorescent data result generated by the alamarBlue reagent thus obtained, the proliferation of the viable cells and cell activity can be quantified for detection.
(§3) In the in vitro anti-cancer tests, a candidate drug was tested at 5 different concentrations of 0.01, 0.1, 1, 10, and 100 μg/ml, and six human cancer cell lines and a normal human cell line were used (see Table 5).

[1] = test system: Human breast adenocarcinoma cell MCF7; test: cells; settings: Homo sapiens; for IC50: MCF7, read-out: IC50 (50% inhibition concentration); for CC50: MCF7, read-out: LC50 (50% lethal concentration)
Description: as §1, §2, §3

[2] = test system: Human colon adenocarcinoma cell HT-29; test: cells; settings: for IC50: HT-29, read-out: IC50 (50% inhibition concentration); for CC50: HT-29, read-out: LC50 (50% lethal concentration)
Description: as §1, §2, §3

[3] = test system: Human hepatocellular carcinoma cell HepG2; test: cells; settings: for IC50: HepG2, read-out: IC50 (50% inhibition concentration); for CC50: HepG2, read-out: LC50 (50% lethal concentration)
Description: as §1, §2, §3

[4] = test system: Human histocytic lymphoma cell U937; test: cells; settings: for CC50: U-937, read-out: LC50 (50% lethal concentration)
Description: as §1, §2, §3

[5] = test system: Human lung carcinoma cell A549; test: cells; settings: for CC50: A549, read-out: LC50 (50% lethal concentration)
Description: as §1, §2, §3

[6] = test system: Human promyelocytic leukemia cell HL-60; test: cells; settings: for CC50: HL-60, read-out: LC50 (50% lethal concentration)
Description: as §1, §2, §3

[7] = test system: Human umbilical venal epithelial cell (HUVEC); test: cells; settings: Homo sapiens, HUVEC, read-out: IC50 (50% inhibition concentration)
Description: as §1, §2, §3

[8] = U-937, read-out: IC50 (50% inhibition concentration)
[9] = A549, read-out: IC50 (50% inhibition concentration)
[10] = HL-60, read-out: IC50 (50% inhibition concentration)

Compound | CC50 (in vitro) | IC50 [1] | CC50 [1] | IC50 [2] | CC50 [2] | IC50 [3] | CC50 [3] | IC50 [4, 8] | CC50 [4] | IC50 [5, 9] | CC50 [5] | IC50 [6, 10] | CC50 [6] | IC50 [7] | IC50 ([5]; A549, read-out: IC50 (50% inhibition concentration), A549) | IC50 ([6]; HL-60, read-out: IC50 (50% inhibition concentration), HL-60) | IC50 ([4]; U-937, read-out: IC50 (50% inhibition concentration), U937)
CC(C)=CCC/C(C)=C/Cc1c(O)c(CC=C(C)C)c2c(c1O)C(=O)C1=CC3CC4C(C)(C)O[C@](CC=C(C)C)(C3=O)[C@@]14O2 (stereo in doubt) [Gh-4301, desoxygambogenin] | 1.3 µg/mL (≈ 2.16 µM) | 19 µg/mL (≈ 31.6 µM) | 56 µg/mL (≈ 93.2 µM) | 13 µg/mL (≈ 21.6 µM) | 42 µg/mL (≈ 69.9 µM) | 12 µg/mL (≈ 20 µM) | 51 µg/mL (≈ 84.9 µM) | 11 µg/mL (≈ 18.3 µM) | > 100 µg/mL | 0.51 µg/mL (≈ 0.849 µM) | 6.2 µg/mL (≈ 10.3 µM) | 3.5 µg/mL (≈ 5.83 µM) | > 100 µg/mL | 0.29 µg/mL (≈ 0.483 µM) | – | – | –
CC(C)=CCC/C(C)=C/Cc1c(O)c(CC=C(C)C)c2c(c1O)C(=O)C1=C[C@@H]3CC4C(C)(C)O[C@](C/C=C(/C)C(=O)O)(C3=O)[C@@]14O2 [Gh-2505, gambogenic acid] | 2.3 µg/mL (≈ 3.65 µM) | 1.9 µg/mL (≈ 3.01 µM) | 19 µg/mL (≈ 30.1 µM) | 2.1 µg/mL (≈ 3.33 µM) | 4.4 µg/mL (≈ 6.98 µM) | 2.1 µg/mL (≈ 3.33 µM) | 6.5 µg/mL (≈ 10.3 µM) | 1.1 µg/mL (≈ 1.74 µM) | 3.7 µg/mL (≈ 5.87 µM) | 0.62 µg/mL (≈ 0.983 µM) | 12 µg/mL (≈ 19 µM) | 0.75 µg/mL (≈ 1.19 µM) | 7.2 µg/mL (≈ 11.4 µM) | 0.28 µg/mL (≈ 0.444 µM) | – | – | –
CC(C)=CCc1c2c(c(O)c3c1O[C@]1(C)CCC4C3C1C4(C)C)C(=O)C1=C[C@@H]3CC4C(C)(C)OC(C/C=C(/C)C(=O)O)(C3=O)[C@@]14O2 [Gh-2607-B] | 1.6 µg/mL (≈ 2.54 µM) | 0.1 µg/mL (≈ 0.159 µM) | 0.68 µg/mL (≈ 1.08 µM) | 0.3 µg/mL (≈ 0.477 µM) | 1 µg/mL (≈ 1.59 µM) | 0.31 µg/mL (≈ 0.493 µM) | 4 µg/mL (≈ 6.36 µM) | 0.1 µg/mL (≈ 0.159 µM) | 0.25 µg/mL (≈ 0.398 µM) | 0.1 µg/mL (≈ 0.159 µM) | 0.33 µg/mL (≈ 0.525 µM) | 0.13 µg/mL (≈ 0.207 µM) | 3.1 µg/mL (≈ 4.93 µM) | 0.07 µg/mL (≈ 0.111 µM) | – | – | –
C=C(C)[C@@H]1CC[C@@]2(C)CC1c1c(O)c3c(c(CC=C(C)C)c1O2)O[C@]12C(=C[C@@H]4CC1C(C)(C)O[C@]2(C/C=C(/C)C(=O)O)C4=O)C3=O [Gh-2603-1, 2-butenoic acid, 2-methyl-4-[(1R,3aS,5S,9S,10R,13S,16aS)-3a,4,5,7,10,11,12,13-octahydro-8-hydroxy-3,3,13-trimethyl-15-(3-methyl-2-butenyl)-10-(1-methylethenyl)-7,18-dioxo-1,5:9,13-dimethano-1H,3H,9H-furo[3.4-g]oxocino[3.2-b]xanthen-1-yl]-,(2Z)-] | 1.7 µg/mL (≈ 2.7 µM) | – | – | – | – | 1 µg/mL (≈ 1.59 µM) | – | – | – | – | – | 1 µg/mL (≈ 1.59 µM) | – | – | – | – | –
CC(C)=CCC[C@@]1(C)C=Cc2c(O)c3c(c(CC=C(C)C)c2O1)O[C@]12C(=C[C@@H]4CC1C(C)(C)O[C@]2(C/C=C(/CO)C(=O)O)C4=O)C3=O [Gh-1602, 30-hydroxyepigambogic acid] | 0.94 µg/mL (≈ 1.46 µM) | – | 4 µg/mL (≈ 6.2 µM) | – | – | – | – | – | – | – | – | – | – | – | 0.4 µg/mL (≈ 0.62 µM) | 1 µg/mL (≈ 1.55 µM) | –
CC(C)=CCc1c2c(c(O)c3c1O[C@]14C(=C[C@@H]5CC1C(C)(C)O[C@]4(C/C=C(\C)C=O)C5=O)C3=O)C=CC(C)(C)O2 [Gh-2501, isomorellin] | 1.8 µg/mL (≈ 3.3 µM) | 1.3 µg/mL (≈ 2.39 µM) | 3.7 µg/mL (≈ 6.79 µM) | 2.1 µg/mL (≈ 3.86 µM) | 4 µg/mL (≈ 7.34 µM) | 2.2 µg/mL (≈ 4.04 µM) | 4.5 µg/mL (≈ 8.26 µM) | 0.9 µg/mL (≈ 1.65 µM) | 3.1 µg/mL (≈ 5.69 µM) | 0.61 µg/mL (≈ 1.12 µM) | 2.1 µg/mL (≈ 3.86 µM) | 1 µg/mL (≈ 1.84 µM) | 4 µg/mL (≈ 7.34 µM) | 0.26 µg/mL (≈ 0.477 µM) | – | – | –
CC(C)=CCC[C@]1(C)C=Cc2c(O)c3c(c(CC=C(C)C)c2O1)O[C@]12C(=C[C@@H]4CC1C(C)(C)O[C@]2(C/C=C(\C)C(=O)O)C4=O)C3=O [Gh-1641, isogambogic acid] | 1.3 µg/mL (≈ 2.07 µM) | 1.7 µg/mL (≈ 2.7 µM) | 33 µg/mL (≈ 52.5 µM) | 1.4 µg/mL (≈ 2.23 µM) | 4.4 µg/mL (≈ 7 µM) | 0.86 µg/mL (≈ 1.37 µM) | 4.5 µg/mL (≈ 7.16 µM) | 9.4 µg/mL (≈ 15 µM) | 36 µg/mL (≈ 57.3 µM) | 0.47 µg/mL (≈ 0.748 µM) | 3 µg/mL (≈ 4.77 µM) | 8 µg/mL (≈ 12.7 µM) | 32 µg/mL (≈ 50.9 µM) | 0.18 µg/mL (≈ 0.286 µM) | – | – | –
CC(C)=CCC[C@]1(C)C=Cc2c(O)c3c(c(CC=C(C)C)c2O1)O[C@]12C(=C[C@@H]4CC1C(C)(C)O[C@]2(C/C=C(/CO)C(=O)O)C4=O)C3=O [Gh-1601-A, 30-hydroxygambogic acid] | 5.4 µg/mL (≈ 8.38 µM) | – | – | – | – | – | – | – | – | – | – | – | 3 µg/mL (≈ 4.65 µM) | – | – | – | 0.09 µg/mL (≈ 0.14 µM)
